Laboratory results published in paper PMC8875508, “Cytotoxic Phenylpropanoid Derivatives and Alkaloids from the Flowers of Pancratium maritimum L” (Plants, 2022).

How the values were obtained:
Assay type in all cases: cell-based
[1] = system: MDA-MB-231 cells; experiment: MTT antiproliferative assay, MDA-MB-231; details: Homo sapiens, 72 h, mean of three independent experiments, cutoff 10 µM, read-out: IC50 (Mean + SEM)
Protocol: (§1) HCT116 (Colorectal carcinoma, ATCC CCL-247) and HeLa (human cervical carcinoma, ATCC CCL-2) cells were cultured in RPMI 1640 medium with 10% FBS, and 1% penicillin–streptomycin, while MDA-MB-231 cells (triple-negative breast cancer, ATCC HTB-26) were cultured in DMEM medium with 1% penicillin–streptomycin and 10% FBS.
(§2) The evaluation of the antiproliferative effects compounds 1–7 were performed using MTT assay, as reported earlier. In short, the cells were incubated at 37 °C overnight in 5% CO2/air. After that, the compounds were added at the top row of a 96-well microtiter plate; a descendant serial dilution (1:4) of the concentration was performed followed by incubation of the cells with the compounds for 72 h. Using the Cell Titer 96 AQueous non-radioactive cell proliferation protocol, the cell viability was estimated at 490 nm on a Molecular Devices Emax microplate reader. The IC50 values of the compounds (expressed in μM) were evaluated using the program SoftMax Pro. A concentration of 10 µM was set as a cutoff value in this assay.

[2] = system: HeLa cells; experiment: MTT antiproliferative assay, HeLa; details: Homo sapiens, 72 h, mean of three independent experiments, cutoff 10 µM, read-out: IC50 (Mean + SEM)
Protocol: as §1, §2

[3] = system: HCT 116 cells; experiment: MTT antiproliferative assay, HCT 116; details: Homo sapiens, 72 h, mean of three independent experiments, cutoff 10 µM, read-out: IC50 (Mean + SEM)
Protocol: as §1, §2

[4] = system: HCT116, HeLa, and MDA-MB-231 cell lines; experiment: MTT assay, average over the cancerous cell lines; details: Homo sapiens; average of HCT116, HeLa and MDA-MB-231; read-out: average IC50 against the cancerous cell lines
Protocol: as §1, §2

[5] = system: normal human dermal fibroblasts (NHDF); experiment: MTT assay, normal human dermal fibroblasts
Protocol: The normal human dermal fibroblasts (NHDF) cells were cultured in fibroblast basal medium complemented with penicillin–streptomycin (1% v/v), insulin (5 µg/mL), heat-inactivated fetal bovine serum (FBS) (2% v/v), and basic fibroblast growth factor (1 ng/mL).
as §2

Compound | IC50 [1] | IC50 [2] | IC50 [3] | IC50 [4] | IC50 ([5]; Homo sapiens, NHDF, MTT, 72 h, mean of three independent experiments, read-out: IC50 (Mean + SEM)) | selectivity towards the tested cancer cell lines versus NHDF ([5]; NHDF IC50 6.6 µM versus average IC50 0.099 µM of the cancer cell lines)
COC(=O)/C=C\c1ccc(O[C@@H]2O[C@H](CO)[C@@H](O)[C@H](O)[C@H]2O)cc1 [Compound 1, 3-[4-(β-D-glucopyranosyloxy)phenyl]-2-(Z)-propenoic acid methyl ester] | ≥ 10 µM | ≥ 10 µM | ≥ 10 µM |  |  | 
COC(=O)c1ccc(O[C@@H]2O[C@H](CO)[C@@H](O)[C@H](O)[C@H]2O)c(OC)c1 [Compound 2, 3-methoxy-4-(β-D-glucopyranosyloxy)benzoic acid methyl ester] | ≥ 10 µM | ≥ 10 µM | ≥ 10 µM |  |  | 
O=C1N[C@H]2[C@H](O)[C@H](O)[C@@H](O)[C@H](O)[C@@H]2c2cc3c(c(O)c21)OCO3 [Compound 7, pancratistatin] | 0.14 ± 0.002 µM | 0.058 ± 0.001 µM | 0.1 ± 0.005 µM | 0.099 µM | 6.6 ± 0.034 µM | 66 fold

More lines, main results first:

IC50 [1] | IC50 [2] | IC50 [3] | Compound | IC50 [4] | IC50 ([5]; Homo sapiens, NHDF, MTT, 72 h, mean of three independent experiments, read-out: IC50 (Mean + SEM)) | selectivity towards the tested cancer cell lines versus NHDF ([5]; NHDF IC50 6.6 µM versus average IC50 0.099 µM of the cancer cell lines)
≥ 10 µM | ≥ 10 µM | ≥ 10 µM | COc1ccc(CCCO[C@@H]2O[C@H](CO)[C@@H](O)[C@H](O)[C@H]2O)cc1 [Compound 3, 3-(4-methoxyphenyl)propan-1-ol-1-O-β-D-glucopyranoside] |  |  | 
≥ 10 µM | ≥ 10 µM | ≥ 10 µM | O=C(O)/C=C/c1ccc(O)c(O)c1 [Compound 5, caffeic acid] |  |  | 
13 ± 0.3 µM | 12.3 ± 0.25 µM | 4.6 ± 0.23 µM | O=c1[nH]cc(F)c(=O)[nH]1 [Compound 5-FU, 5-Fluorouracil, reference compound] |  |  | 
